# Data: patent publication US20110070597A1, “Thin-Film Passive Samplers for Detection of Hydrophobic Organic Contaminants and Estrogenicity in Various Environments” (UNIVERSITY OF CONNECTICUT, priority 2009, published 2011)
# Format: physicochemical
# Source text: The polymer coated glass samplers (POG) and the organic rapid equilibrating (ORE) samplers, 10 and 20, both consisting of a thin film (on the order of ˜1-2 μm) of EVA, were calibrated by experimental determination of EVA-Water partition coefficients and sampling rates. The ORE is comprised of a 1.4 μm EVA coating on a 5.1×7.6 cm titanium plate, while the POG utilizes a thin-film of EVA on a glass fiber filter.
# A closed system experiment was used to calibrate the POG and ORE devices. Sampling rates and equilibration times were determined for fourteen PBDE congeners. EVA-Water partitioning coefficients (KEVA-W) were experimentally determined for 5 BDE congeners. A Log KEVA-W−Log KOW (Octanol-Water partitioning coefficient) plot was constructed and used to define Log KEVA-W partitioning coefficients for the 14 BDE congeners examined. Values ranged from 6.39 to 10.6. The experimental design was successful in parameterizing the desired constants. In sum, both samplers were successfully calibrated.
# A dichloromethane rinsed 20 gallon fish tank was employed for the tank deployment experimental. Three POGs and three OREs were suspended from a stainless steel frame proximate the top of the tank.
# Once dry, the tank was filled with artificial seawater comprising sodium chloride, sodium bicarbonate, magnesium sulfate, and high purity Milli-Q water. A handheld multiparameter instrument (YSI-556) was used to confirm salinity (31 parts per thousand), dissolved oxygen (0.19 mM), and temperature (20° C.) prior to starting the experiment. The tank was fit with a plexiglass lid sealed with polytetrafluoroethylene (PTFE; i.e., Teflon®) and duct tape.
# The tank was spiked with 0.2 mL of the PBDE Predominant Congener Mixture in n-nonane from Cambridge Isotope laboratories and allowed to equilibrate for 48 hours. Samplers were removed from refrigeration and allowed to equilibrate to room temperature. 400 mL of water was taken to establish the initial concentration. Seven sets of three samplers were added to the tank. The tank was secured with a lid, PTFE and duct tape, as described above. Four hundred milliliter aliquots of tank water and one sampler set were removed at the following time intervals: 1 hr, 2 hrs, 6 hrs, 12 hrs, 3 days, 12 days, and 32 days. The tank was open to the air in the fume hood for less than 4 minutes during each sampling period. After removal, each sampler set was wrapped in pre-cleaned aluminum foil and placed frozen in an airtight bag at −20° C. until extraction and analysis. Water-side 400 mL aliquots were frozen at −20° C. until extraction and analysis.
# The POGs and OREs were extracted for analysis of PBDE concentration.
# Extracts were analyzed for BDE congeners 17, 28, 47, 66, 71, 85, 99, 100, 138, 153, 154, 183, 190, and 209 by gas chromatography-mass spectrometry (GC/MS). Masses 79 (PBDEs) and 414 (Mirex) were used for quantification with Masses 81 (PBDEs), 487, 486 (DecaBDE), and 412 (Mirex) acting as confirmation ions. Extracts were identified and quantified by comparison with known concentrations of prepared standard solutions.
# Sampling rates were calculated experimentally using Equation 2. The sampling rates varied between sampler types. The differences in sampling rates were likely due to variations in the thickness and heterogeneity versus homogeneity of the thin film coating on the respective plates. Sampling rates (RS(s)) were calculated at 1, 2, or 6 hrs depending upon the shape of the uptake curve.
Compound,LOG KEVA-W (EVA-water partition coefficient) ORE,LOG KEVA-W (EVA-water partition coefficient) POG
Brc1ccc(Oc2ccccc2Br)c(Br)c1 [BDE 17],6.40 ± 0.08,6.01 ± 0.07
Brc1ccc(Oc2ccc(Br)cc2Br)cc1 [BDE 28],6.38 ± 0.10,5.90 ± 0.06
Brc1ccc(Oc2ccc(Br)cc2Br)c(Br)c1 [BDE 47],6.79 ± 0.10,6.43 ± 0.07
Brc1ccc(Oc2ccc(Br)c(Br)c2)c(Br)c1 [BDE 66],6.66 ± 0.11,6.25 ± 0.07
Brc1ccc(Oc2c(Br)cccc2Br)cc1Br [BDE 71],6.67 ± 0.02,6.24 ± 0.05
